# According to BindingDB's records for PubMed 20126400 (University of Oklahoma, 2010):
# How the values were obtained:
# Experiment in all cases: Ray2010 Assay 74
# Cannabinoid receptor 1 = Cannabinoid receptor 1 (Homo sapiens, UniProt P21554)
# Excerpt: (§1) Table S2 shows raw Ki data for the current study combined with data collected from the literature for the ten additional compounds.
# Cannabinoid receptor 2 = Cannabinoid receptor 2 (Homo sapiens, UniProt P34972)
# Excerpt: as §1
# D(1B) dopamine receptor = D(1B) dopamine receptor (Homo sapiens, UniProt P21918)
# Excerpt: as §1
# [1] = biological target: T1, Gamma-aminobutyric acid receptor subunit alpha-1/Adenosine receptor A1 (Homo sapiens, UniProt P14867+P30542)
# T1 sequence (P30542 whole entry): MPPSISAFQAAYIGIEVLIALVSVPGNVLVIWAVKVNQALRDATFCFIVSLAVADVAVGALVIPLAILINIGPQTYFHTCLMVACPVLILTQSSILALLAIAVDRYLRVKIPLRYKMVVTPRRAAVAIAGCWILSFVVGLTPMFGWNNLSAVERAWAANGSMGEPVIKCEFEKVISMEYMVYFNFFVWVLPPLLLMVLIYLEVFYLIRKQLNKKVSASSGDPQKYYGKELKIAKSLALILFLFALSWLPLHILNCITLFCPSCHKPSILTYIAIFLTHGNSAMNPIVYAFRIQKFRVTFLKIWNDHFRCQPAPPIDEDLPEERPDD
# T1 sequence (P14867 whole entry): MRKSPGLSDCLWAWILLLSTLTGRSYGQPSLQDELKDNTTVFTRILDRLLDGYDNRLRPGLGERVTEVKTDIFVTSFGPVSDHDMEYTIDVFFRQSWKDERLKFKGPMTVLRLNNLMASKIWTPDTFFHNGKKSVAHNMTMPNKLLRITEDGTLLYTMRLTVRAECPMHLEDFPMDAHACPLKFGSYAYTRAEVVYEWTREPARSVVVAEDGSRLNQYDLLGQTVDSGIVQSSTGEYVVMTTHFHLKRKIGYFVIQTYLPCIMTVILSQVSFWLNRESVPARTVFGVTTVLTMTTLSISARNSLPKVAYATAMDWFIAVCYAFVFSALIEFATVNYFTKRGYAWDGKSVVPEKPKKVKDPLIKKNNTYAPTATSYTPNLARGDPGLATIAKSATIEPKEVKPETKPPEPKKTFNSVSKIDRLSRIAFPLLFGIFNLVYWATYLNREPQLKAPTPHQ
# Excerpt: as §1
# Histamine H3 receptor = Histamine H3 receptor (Homo sapiens, UniProt Q9Y5N1)
# Excerpt: as §1
# Histamine H4 receptor = Histamine H4 receptor (Homo sapiens, UniProt Q9H3N8)
# Excerpt: as §1
# [2] = biological target: Muscarinic acetylcholine receptor M3 (Homo sapiens, UniProt P20309)
# Excerpt: as §1
# [3] = biological target: T2, Muscarinic acetylcholine receptor M4 (Homo sapiens, UniProt P08173)
# T2 sequence (P08173 whole entry): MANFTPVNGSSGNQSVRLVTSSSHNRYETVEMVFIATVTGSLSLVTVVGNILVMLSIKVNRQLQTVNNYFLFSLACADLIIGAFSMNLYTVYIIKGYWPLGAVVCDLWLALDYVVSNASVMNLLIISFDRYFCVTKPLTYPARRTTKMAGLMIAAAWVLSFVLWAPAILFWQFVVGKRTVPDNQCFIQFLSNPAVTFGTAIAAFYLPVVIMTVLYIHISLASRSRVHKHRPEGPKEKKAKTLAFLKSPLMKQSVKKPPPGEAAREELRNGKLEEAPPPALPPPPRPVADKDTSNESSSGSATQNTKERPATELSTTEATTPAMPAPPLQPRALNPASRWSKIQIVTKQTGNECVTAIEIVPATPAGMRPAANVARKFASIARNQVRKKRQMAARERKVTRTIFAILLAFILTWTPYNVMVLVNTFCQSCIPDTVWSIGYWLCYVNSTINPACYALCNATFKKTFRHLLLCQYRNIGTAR
# Excerpt: as §1
# [4] = biological target: Sigma non-opioid intracellular receptor 1 (Homo sapiens, UniProt Q99720)
# Excerpt: as §1
# [5] = biological target: Voltage-dependent calcium channel subunit alpha-2/delta-1 (Homo sapiens, UniProt P54289)
# Excerpt: as §1
# [6] = biological target: 5-hydroxytryptamine receptor 5A (Homo sapiens, UniProt P47898)
# Excerpt: as §1
# [7] = biological target: 5-hydroxytryptamine receptor 7 (Homo sapiens, UniProt P34969)
# Excerpt: as §1
# [8] = biological target: T3, Prostaglandin E2 receptor EP3 subtype (Homo sapiens, UniProt P43115)
# T3 sequence (P43115 whole entry): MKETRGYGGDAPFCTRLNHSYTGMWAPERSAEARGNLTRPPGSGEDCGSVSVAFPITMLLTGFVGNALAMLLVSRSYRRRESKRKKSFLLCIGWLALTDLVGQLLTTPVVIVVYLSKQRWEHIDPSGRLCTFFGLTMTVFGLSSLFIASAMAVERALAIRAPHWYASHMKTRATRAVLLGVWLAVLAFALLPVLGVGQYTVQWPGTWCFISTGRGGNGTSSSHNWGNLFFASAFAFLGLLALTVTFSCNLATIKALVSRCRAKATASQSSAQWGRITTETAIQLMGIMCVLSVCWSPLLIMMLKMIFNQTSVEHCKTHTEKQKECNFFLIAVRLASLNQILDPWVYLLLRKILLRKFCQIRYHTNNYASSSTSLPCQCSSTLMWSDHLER
# Excerpt: as §1
# Vasopressin V1a receptor = Vasopressin V1a receptor (Homo sapiens, UniProt P37288)
# Excerpt: as §1
# Vasopressin V1b receptor = biological target: T4, Vasopressin V1b receptor (Homo sapiens, UniProt P47901)
# T4 sequence (P47901 whole entry): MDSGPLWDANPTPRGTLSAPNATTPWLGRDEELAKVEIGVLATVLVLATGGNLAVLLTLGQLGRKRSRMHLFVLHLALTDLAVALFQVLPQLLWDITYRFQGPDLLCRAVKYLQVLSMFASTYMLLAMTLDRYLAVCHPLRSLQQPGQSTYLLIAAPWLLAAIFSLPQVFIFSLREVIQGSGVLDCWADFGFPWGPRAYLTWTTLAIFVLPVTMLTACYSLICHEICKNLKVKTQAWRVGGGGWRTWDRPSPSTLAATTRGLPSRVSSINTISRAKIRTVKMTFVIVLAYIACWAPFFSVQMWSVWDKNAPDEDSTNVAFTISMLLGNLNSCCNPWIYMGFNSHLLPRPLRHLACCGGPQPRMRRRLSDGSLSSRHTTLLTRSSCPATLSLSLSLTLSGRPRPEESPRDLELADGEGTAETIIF
# Excerpt: as §1
# Sequence of Histamine H4 receptor (Q9H3N8 whole entry): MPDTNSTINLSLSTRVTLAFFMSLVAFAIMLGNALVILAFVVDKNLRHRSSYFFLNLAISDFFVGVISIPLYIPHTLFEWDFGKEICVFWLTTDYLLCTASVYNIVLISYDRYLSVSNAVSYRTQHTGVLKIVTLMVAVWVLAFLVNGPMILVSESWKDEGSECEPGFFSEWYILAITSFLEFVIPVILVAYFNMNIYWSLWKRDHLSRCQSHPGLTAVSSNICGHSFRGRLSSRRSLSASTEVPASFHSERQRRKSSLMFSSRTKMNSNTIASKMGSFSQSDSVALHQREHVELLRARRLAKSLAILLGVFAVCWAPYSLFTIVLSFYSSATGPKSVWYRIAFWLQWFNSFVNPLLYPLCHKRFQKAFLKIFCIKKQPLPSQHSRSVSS
# Sequence of Histamine H3 receptor (Q9Y5N1 whole entry): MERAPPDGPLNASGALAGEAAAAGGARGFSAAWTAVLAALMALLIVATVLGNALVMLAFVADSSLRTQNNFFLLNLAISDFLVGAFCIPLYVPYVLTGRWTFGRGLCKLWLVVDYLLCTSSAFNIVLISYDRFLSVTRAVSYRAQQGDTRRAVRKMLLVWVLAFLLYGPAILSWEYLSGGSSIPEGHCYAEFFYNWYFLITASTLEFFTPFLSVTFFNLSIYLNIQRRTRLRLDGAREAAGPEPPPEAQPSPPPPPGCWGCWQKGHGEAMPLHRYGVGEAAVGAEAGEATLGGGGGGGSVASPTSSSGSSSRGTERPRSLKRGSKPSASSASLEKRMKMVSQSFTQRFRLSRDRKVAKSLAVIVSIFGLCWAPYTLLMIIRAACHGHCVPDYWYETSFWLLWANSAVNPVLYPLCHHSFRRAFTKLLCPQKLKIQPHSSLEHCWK
# Sequence of 5-hydroxytryptamine receptor 5A (P47898 whole entry): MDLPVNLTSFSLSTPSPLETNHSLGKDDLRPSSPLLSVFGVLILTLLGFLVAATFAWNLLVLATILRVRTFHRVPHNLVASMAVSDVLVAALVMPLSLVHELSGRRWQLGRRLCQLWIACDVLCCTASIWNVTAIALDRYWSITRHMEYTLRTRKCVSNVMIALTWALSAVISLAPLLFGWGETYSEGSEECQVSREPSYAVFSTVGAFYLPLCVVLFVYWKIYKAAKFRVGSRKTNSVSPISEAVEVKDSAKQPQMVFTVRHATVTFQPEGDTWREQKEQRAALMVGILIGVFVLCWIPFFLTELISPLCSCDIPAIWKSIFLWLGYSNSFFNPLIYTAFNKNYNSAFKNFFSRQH
# Sequence of Cannabinoid receptor 1 (P21554 whole entry): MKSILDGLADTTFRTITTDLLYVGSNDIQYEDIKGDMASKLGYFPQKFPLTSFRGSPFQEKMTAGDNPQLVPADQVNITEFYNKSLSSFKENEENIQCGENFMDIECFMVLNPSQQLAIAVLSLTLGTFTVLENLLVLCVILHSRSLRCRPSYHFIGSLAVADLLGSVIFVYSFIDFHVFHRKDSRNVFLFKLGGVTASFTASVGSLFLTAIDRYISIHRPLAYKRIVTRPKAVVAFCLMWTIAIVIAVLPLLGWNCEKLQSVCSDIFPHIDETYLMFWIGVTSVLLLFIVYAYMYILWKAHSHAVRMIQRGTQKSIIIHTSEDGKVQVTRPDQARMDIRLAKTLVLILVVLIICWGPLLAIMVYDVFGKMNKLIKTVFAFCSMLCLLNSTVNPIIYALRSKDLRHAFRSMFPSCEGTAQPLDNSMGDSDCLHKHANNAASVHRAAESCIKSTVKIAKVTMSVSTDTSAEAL
# Sequence of Muscarinic acetylcholine receptor M3 (P20309 whole entry): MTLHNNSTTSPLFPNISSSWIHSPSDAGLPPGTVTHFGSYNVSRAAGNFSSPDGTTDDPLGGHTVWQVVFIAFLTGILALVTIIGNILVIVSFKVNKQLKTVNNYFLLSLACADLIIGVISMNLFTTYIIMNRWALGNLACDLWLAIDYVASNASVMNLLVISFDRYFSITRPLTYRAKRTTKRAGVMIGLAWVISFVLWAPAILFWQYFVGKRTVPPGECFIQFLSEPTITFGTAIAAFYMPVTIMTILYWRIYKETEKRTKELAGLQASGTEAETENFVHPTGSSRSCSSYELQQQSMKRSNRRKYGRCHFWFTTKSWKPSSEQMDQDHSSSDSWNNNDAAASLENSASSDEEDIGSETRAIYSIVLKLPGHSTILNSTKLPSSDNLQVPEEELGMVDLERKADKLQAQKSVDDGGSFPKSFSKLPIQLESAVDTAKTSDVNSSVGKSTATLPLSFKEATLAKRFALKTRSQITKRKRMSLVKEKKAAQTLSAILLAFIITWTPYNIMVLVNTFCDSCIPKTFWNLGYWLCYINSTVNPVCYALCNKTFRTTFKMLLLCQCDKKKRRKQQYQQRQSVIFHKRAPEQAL
# Sequence of Cannabinoid receptor 2 (P34972 whole entry): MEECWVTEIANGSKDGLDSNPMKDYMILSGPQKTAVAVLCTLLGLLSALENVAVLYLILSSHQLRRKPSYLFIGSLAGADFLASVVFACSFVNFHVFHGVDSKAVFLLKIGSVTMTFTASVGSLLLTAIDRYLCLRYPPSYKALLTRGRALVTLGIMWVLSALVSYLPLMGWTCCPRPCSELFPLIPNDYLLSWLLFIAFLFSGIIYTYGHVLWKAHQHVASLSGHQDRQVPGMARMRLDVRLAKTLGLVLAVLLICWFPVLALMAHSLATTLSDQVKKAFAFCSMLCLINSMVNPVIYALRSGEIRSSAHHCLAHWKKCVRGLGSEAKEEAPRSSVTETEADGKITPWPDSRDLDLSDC
# Sequence of D(1B) dopamine receptor (P21918 whole entry): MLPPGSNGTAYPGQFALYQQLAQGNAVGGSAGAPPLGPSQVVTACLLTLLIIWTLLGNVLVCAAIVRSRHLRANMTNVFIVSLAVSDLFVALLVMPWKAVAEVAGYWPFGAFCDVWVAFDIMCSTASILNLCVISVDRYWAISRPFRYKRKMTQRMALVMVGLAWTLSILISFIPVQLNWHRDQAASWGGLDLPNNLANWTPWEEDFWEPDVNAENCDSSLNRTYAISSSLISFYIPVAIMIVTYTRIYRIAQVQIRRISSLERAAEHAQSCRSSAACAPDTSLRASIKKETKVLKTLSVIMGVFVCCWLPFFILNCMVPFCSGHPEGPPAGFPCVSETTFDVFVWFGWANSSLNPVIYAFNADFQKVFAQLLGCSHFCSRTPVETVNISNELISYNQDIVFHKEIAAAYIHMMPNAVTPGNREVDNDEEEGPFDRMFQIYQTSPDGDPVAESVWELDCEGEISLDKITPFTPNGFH
# Sequence of Vasopressin V1a receptor (P37288 whole entry): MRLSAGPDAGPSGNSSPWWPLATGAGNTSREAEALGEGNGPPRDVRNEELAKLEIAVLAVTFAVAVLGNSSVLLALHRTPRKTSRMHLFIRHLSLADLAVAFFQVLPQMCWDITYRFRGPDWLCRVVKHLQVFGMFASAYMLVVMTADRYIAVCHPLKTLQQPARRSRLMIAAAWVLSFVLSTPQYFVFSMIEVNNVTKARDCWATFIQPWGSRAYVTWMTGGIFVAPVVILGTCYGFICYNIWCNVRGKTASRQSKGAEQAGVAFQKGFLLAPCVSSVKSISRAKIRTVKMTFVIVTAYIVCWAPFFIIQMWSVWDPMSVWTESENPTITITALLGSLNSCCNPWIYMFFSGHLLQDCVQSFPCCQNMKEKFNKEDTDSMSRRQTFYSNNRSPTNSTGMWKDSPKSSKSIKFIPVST
# Sequence of 5-hydroxytryptamine receptor 7 (P34969 whole entry): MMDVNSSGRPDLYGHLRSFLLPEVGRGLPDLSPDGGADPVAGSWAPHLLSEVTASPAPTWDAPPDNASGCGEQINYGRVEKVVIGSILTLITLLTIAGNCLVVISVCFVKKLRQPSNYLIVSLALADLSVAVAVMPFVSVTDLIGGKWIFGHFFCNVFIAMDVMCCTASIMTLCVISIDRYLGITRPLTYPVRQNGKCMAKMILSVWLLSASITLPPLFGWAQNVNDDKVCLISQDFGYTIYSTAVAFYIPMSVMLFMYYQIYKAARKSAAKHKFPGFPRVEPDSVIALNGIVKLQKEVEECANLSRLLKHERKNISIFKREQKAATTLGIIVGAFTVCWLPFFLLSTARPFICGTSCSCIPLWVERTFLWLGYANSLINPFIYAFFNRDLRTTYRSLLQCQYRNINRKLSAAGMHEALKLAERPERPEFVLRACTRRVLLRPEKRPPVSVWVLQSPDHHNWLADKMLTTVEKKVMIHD
# Sequence of Sigma non-opioid intracellular receptor 1 (Q99720 whole entry): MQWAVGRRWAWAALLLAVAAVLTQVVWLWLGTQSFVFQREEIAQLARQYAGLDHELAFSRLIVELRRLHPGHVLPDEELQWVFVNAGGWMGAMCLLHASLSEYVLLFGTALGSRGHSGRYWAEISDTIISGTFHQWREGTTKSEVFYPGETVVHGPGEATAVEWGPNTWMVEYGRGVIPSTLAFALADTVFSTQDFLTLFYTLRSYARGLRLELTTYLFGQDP
smiles,measurement,setting,value
"CN(C)CCc1c[nH]c2cccc(O)c12 [4-hydroxy-N,N-dimethyltryptamine]",Ki,Cannabinoid receptor 1,> 10 µM
same,Ki,Cannabinoid receptor 2,> 10 µM
same,Ki,D(1B) dopamine receptor,> 10 µM
same,Ki,[1],> 10 µM
same,Ki,Histamine H3 receptor,> 10 µM
same,Ki,Histamine H4 receptor,> 10 µM
same,Ki,[2],> 10 µM
same,Ki,[3],> 10 µM
same,Ki,[4],> 10 µM
same,Ki,[5],> 10 µM
"COc1cc(OC)c(OC)cc1CC(C)N (stereo not drawn) [(+/-)1-Methyl-2-(2,4,5-trimethoxy-phenyl)-ethylamine]",Ki,[6],> 10 µM
same,Ki,[7],> 10 µM
same,Ki,D(1B) dopamine receptor,> 10 µM
same,Ki,Histamine H3 receptor,> 10 µM
same,Ki,Histamine H4 receptor,> 10 µM
COc1cc(CCN)c(OC)cc1Br,Ki,[6],> 10 µM
same,Ki,[7],0.209 µM
same,Ki,Cannabinoid receptor 1,> 10 µM
same,Ki,Cannabinoid receptor 2,> 10 µM
same,Ki,D(1B) dopamine receptor,> 10 µM
same,Ki,[1],> 10 µM
same,Ki,Histamine H3 receptor,> 10 µM
same,Ki,Histamine H4 receptor,> 10 µM
same,Ki,[2],0.822 µM
same,Ki,[3],> 10 µM
same,Ki,[8],> 10 µM
same,Ki,[4],> 10 µM
same,Ki,Vasopressin V1a receptor,> 10 µM
same,Ki,Vasopressin V1b receptor,> 10 µM
COc1ccc2[nH]c(C)c(CCN(C)C)c2c1 [[2-(5-Methoxy-2-methyl-1H-indol-3-yl)-ethyl]-dimethyl-amine (C2H2O)],Ki,Histamine H3 receptor,> 10 µM
same,Ki,Histamine H4 receptor,> 10 µM
same,Ki,[2],> 10 µM
same,Ki,[3],> 10 µM
same,Ki,Vasopressin V1a receptor,> 10 µM
same,Ki,Vasopressin V1b receptor,> 10 µM
CCN(CC)C(=O)[C@@H]1C=C2c3cccc4[nH]cc(c34)C[C@H]2N(C)C1 [[N-methyl-3H]LSD],Ki,Vasopressin V1a receptor,> 10 µM
same,Ki,Vasopressin V1b receptor,> 10 µM
CC(N)Cc1ccc2c(c1)OCO2 (centres undefined),Ki,[6],> 10 µM
same,Ki,[7],3.55 µM
same,Ki,Cannabinoid receptor 1,> 10 µM
same,Ki,Cannabinoid receptor 2,> 10 µM
same,Ki,D(1B) dopamine receptor,> 10 µM
same,Ki,[1],> 10 µM
same,Ki,Histamine H3 receptor,> 10 µM
same,Ki,Histamine H4 receptor,> 10 µM
COc1cc(CC(C)N)cc(OC)c1OC (centres undefined),Ki,[6],> 10 µM
same,Ki,[7],0.749 µM
same,Ki,Cannabinoid receptor 1,> 10 µM
same,Ki,Cannabinoid receptor 2,> 10 µM
same,Ki,D(1B) dopamine receptor,> 10 µM
same,Ki,Histamine H3 receptor,> 10 µM
same,Ki,Histamine H4 receptor,> 10 µM
same,Ki,[4],0.536 µM
CC[C@H]1C[C@@H]2C[C@H]3c4[nH]c5ccc(OC)cc5c4CCN(C2)[C@@H]13,Ki,[2],12.5 µM
same,Ki,[4],5.84 µM
"CCc1[nH]c2ccc(OC)cc2c1CCN(C)C [2-ethyl-5-methoxy-N,N-dimethyltryptamine]",Ki,Histamine H3 receptor,> 10 µM
same,Ki,Histamine H4 receptor,> 10 µM
same,Ki,[2],> 10 µM
same,Ki,[3],> 10 µM
same,Ki,Vasopressin V1a receptor,> 10 µM
same,Ki,Vasopressin V1b receptor,> 10 µM
C[C@@H]1C[C@@H](C)N1C(=O)C1C=C2c3cccc4[nH]cc(c34)C[C@H]2N(C)C1 (some centres undefined) [rr-2b],Ki,[6],0.0127 µM
same,Ki,Vasopressin V1a receptor,> 10 µM
same,Ki,Vasopressin V1b receptor,> 10 µM
